In US20230219952A1, “PROCESS FOR PREPARING METHYL {4,6-DIAMINO-2-[5-FLUORO-1-(2-FLUOROBENZYL)-1H-PYRAZOLO[3,4-B]PYRIDIN-3 -YL]PYRIMIDIN-5-YL} CARBAMATE” (ADVERIO PHARMA GMBH, priority 2020, published 2023):
Like-named read-outs stand apart in the source and are kept apart here.

Columns and labels:
Type in all cases: physicochemical
[1] = Isolation in an inverting filter centrifuge, industrial scale (isolability)
Source text: In the context of the present invention and as outlined in WO2020/126983, improved isolability of the active compound product, dischargeability of the active compound product after isolation and drying and also conveyability, sieveability and micronizability of the active compound product of the compound of the formula (I) are to be understood as meaning the following, for example: Improved isolability is measurable on an industrial scale for example via a higher area-specific throughput in an inverting filter centrifuge (Example 16). In the context of the present invention the isolation of the active compound product is carried out using for example a filter centrifuge, for example an inverting filter centrifuge. […] This manifests for example in a higher area-specific throughput in the inverting filter centrifuge. On an industrial scale isolation of the material from the process of WO 2013/076168 achieved an average area-specific throughput of 1.6 kg/m^2 h. The average area-specific throughput of the material from the process of the invention was 3.0 kg/m^2 h and thus nearly double the above (Example 16). Higher area-specific throughput in an inverting filter centrifuge. Industrial scale.

[2] = Sieving of active compound product on an industrial sieving machine (sieveability); details: for Sieve throughput of active compound product: industrial scale, Frewitt Oscillowitt MG-800 (2.5 to 4.0 mm) for WO 2013/076168 material, Frewitt Coniwitt TC200 (3 mm) for material of the invention; for Time to sieve 65 kg of active compound product: Frewitt Coniwitt TC200, sieve aperture diameter 3 mm
Procedure: Improved sieveability is measurable for example via improved feeding into the industrial sieving machine as a result of improved flowability of the active compound product and via fewer sieve blockages, for example via the throughput of active compound product per unit time (Example 17).
In the context of the present invention the sieving of the active compound product is carried out for example using a Frewitt Coniwitt TC200 sieving machine (sieve aperture diameter 3 mm) or a Frewitt Oscillowitt MG-800 sieving machine (sieve aperture diameter 2.5 mm to 4.0 mm).
Improved sieveability: The material from the process of the invention is easy to feed into the sieving machine on account of its good flowability. Sieving results in markedly fewer sieve blockages than for material from the process according to route 1. For example on an industrial scale 65 kg of the material from the process of the invention were sievable in <5 min in a Frewitt Coniwitt TC200 sieving machine (sieve aperture diameter 3 mm). This corresponds to >13 kg/min. For comparison sieving material from route 1 via a Frewitt Oscillowitt MG-800 sieving machine (sieve aperture diameter 2.5 mm to 4.0 mm) only achieved throughputs of <10 kg/h. This corresponds to <0.17 kg/min (Example 17). Observed here is a very large difference of a factor of nearly 100 in the sieve throughput of the active compound product of route 1 compared to the active compound product of the invention. This very large difference in sieve throughput results predominantly from the material characteristics of the active compound product and cannot be explained by the different machine types.
Improved sieve throughput. Industrial scale.

[3] = Dischargeability from the inverting filter centrifuge, industrial scale; details: listed as material from the process of the invention
Source text: Improved dischargeability from the isolation apparatus: The process according to the process of the present invention prevents the formation of a felt-like filter cake having high tear strength. Both after isolation in the pressure filter and after isolation in the filter centrifugation the filter cake is soft and moldable. This prevents blockage of the discharge path. For example on an industrial scale a blockage of the discharge path from the inverting filter centrifuge after isolation of the material from the process of WO 2013/076168 was avoidable only by reducing the filter cake thickness to 8 mm to 9 mm. By contrast in the isolation of the material from the process of the invention an average filter cake height of 25 mm was realized without any blocking of the discharge path being observed.

[4] = listed as material from the process of the invention

Average area-specific throughput [1]	Average area-specific throughput ([1]; listed as material from the process of WO 2013/076168)	Sieve throughput ([2]; Frewitt Oscillowitt MG-800, sieve aperture diameter 2.5 mm to 4.0 mm)	Amount of active compound product sieved in 1 h ([2]; Frewitt Oscillowitt MG-800, sieve aperture diameter 2.5 to 4.0 mm, in 1 h)	Sieve throughput of active compound product [2]	Sieve throughput of active compound product ([2]; listed as material from route 1)	Average area-specific throughput [1, 4]	Time to sieve 65 kg of active compound product [2]	Time to sieve 65 kg of active compound product [2, 4]	Sieve throughput of active compound product [2, 4]	Filter cake thickness at which the discharge path does not become blocked [3]	Structure (SMILES)
1.6 kg/m^2h	1.6 kg/m^2h	< 10 kg/h	<10 kg of active compound	i.e. <0.17 kg/min	< 0.17 kg/min						COC(=O)Nc1c(N)nc(-c2nn(Cc3ccccc3F)c3ncc(F)cc23)nc1N [Process of WO 2013/076168, methyl {4,6-diamino-2-[5-fluoro-1-(2-fluorobenzyl)-1H-pyrazolo[3,4-b]pyridin-3-yl]pyrimidin-5-yl}carbamate, reference compound]
3.0 kg/m^2h				i.e. >13 kg/min		3.0 kg/m^2h	product in <5 min	< 5 min	> 13 kg/min	25 mm	COC(=O)Nc1c(N)nc(-c2nn(Cc3ccccc3F)c3ncc(F)cc23)nc1N [Process of the invention, methyl {4,6-diamino-2-[5-fluoro-1-(2-fluorobenzyl)-1H-pyrazolo[3,4-b]pyridin-3-yl]pyrimidin-5-yl}carbamate]
